Results as given in BindingDB's records for doi:10.1074/jbc.M114.573162 (German Institute of Human Nutrition Potsdam-Rehbruecke, 2014).

Each molecule was assayed against T1, Olfactory receptor class A-like protein 1 (Zebrafish, UniProt A0A0R4IM31) (assay: Functional Calcium Imaging Assay). Details: pH 7.4.
T1 sequence (A0A0R4IM31 whole entry): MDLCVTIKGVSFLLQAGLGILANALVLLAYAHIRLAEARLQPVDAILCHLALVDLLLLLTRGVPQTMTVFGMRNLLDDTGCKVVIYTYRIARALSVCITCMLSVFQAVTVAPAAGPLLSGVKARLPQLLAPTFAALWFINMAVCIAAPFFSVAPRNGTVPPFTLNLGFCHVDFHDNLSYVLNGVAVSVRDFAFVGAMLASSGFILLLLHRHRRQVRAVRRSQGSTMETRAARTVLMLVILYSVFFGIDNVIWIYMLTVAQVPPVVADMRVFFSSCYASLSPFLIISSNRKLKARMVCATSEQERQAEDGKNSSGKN
Protocol: Briefly, HEK 293T cells stably expressing the G protein-chimera Gα16gust44 were seeded onto 96-well plates coated with 10 μg/ml of poly-D-lysine. The next day cells were transiently transfected with ORA1, ORA2, or human bitter taste receptor TAS2R16 constructs using Lipofectamine 2000 (Invitrogen). After 24 h the cells were washed with buffer C1 (130 mM NaCl, 5 mM KCl, 10 mM Hepes, pH 7.4, 2 mM CaCl2, 10 mM glucose), and loaded with the calcium-responsive dye Fluo-4 AM in the presence of 1 mM probenecide, an inhibitor of […]. To remove excessive fluorescence dye, cells were washed three times with buffer C1 and transferred into a fluorometric imaging plate reader (FLIPR, Molecular Devices) for measurement. Test substances were dissolved in C1 buffer and the changes in fluorescence after application of test substances were monitored.

Structure (SMILES) | EC50
O=C(O)Cc1ccc(O)cc1 [2-(4-hydroxyphenyl)acetic acid] | 1.9 µM
O=C(O)Cc1ccc2c(c1)OCO2 [3,4-Methylenedioxyphenylacetic acid] | 16 µM
O=C(O)CCc1ccc(O)cc1 [3-(4-Hydroxyphenyl)-propionic acid] | 192 µM
Nc1ccc(CC(=O)O)cc1 [4-Aminophenylacetic acid] | 91.7 µM
CC(C(=O)O)c1ccc(O)cc1 (stereo not given) [Methyl-4-hydroxyphenylacetic acid] | 221 µM
O=C(O)Cc1ccccc1 [Phenylacetate, XIX] | 30.5 µM
O=C(O)Cc1ccc(O)c(O)c1 [SMR000326727] | 22.8 µM

Second part, the molecule after the results:

EC50 | Structure (SMILES)
16.6 µM | O=C(O)Cc1ccc(Cl)cc1 [2-(4-chlorophenyl)acetic acid]
16.5 µM | COc1ccc(CC(=O)O)cc1 [4-Methoxyphenylacetic acid]
14.8 µM | Cc1ccc(C(=O)CC(=O)O)cc1 [4-Toloylacetic acid]
